From patent US11136409B2, “Compositions and methods for identification, assessment, prevention, and treatment of AML using USP10 biomarkers and modulators” (Dana-Farber Cancer Institute, Inc., priority 2016, dated 2021)

Tests used:
Ba/F3-FLT3-ITD cells = experiment: Proliferation of Ba/F3-FLT3-ITD cells; type: cell-based, murine
From the text: Nomo-1, P31-FUJ, and NB4 were obtained from Dr. Gary Gilliland. MV4, 11 cells were obtained from Dr. Anthony Letai. Hel, K562, THP, U937, TF-1 and K052 cells were purchased from the American Type Culture Collection (ATCC) (Manassas, Va., USA). […] Cell lines were submitted for cell line authentication and were authenticated within 6 months of manuscript preparation through cell line short tandem repeat (STR) profiling (DDC Medical, Fairfield, Ohio and Molecular Diagnostics Laboratory, Dana Farber Cancer Institute). […] PBMCs were generously provided by Dr. Steven Treon and Dr. Guang Yang.
The CellTiter-Glo® assay (Promega, Madison, Wis.) was used for proliferation studies and carried out according to manufacturer instructions. Cell viability is reported as percentage of control (untreated) cells, and error bars represent the standard error of the mean for each data point.

USP10 [1] = experiment: USP10 target engagement in cells, labeling with HA-Ub-VS; type: cell-based; conditions: lysates from live treated cells
Experimental: Cells were harvested, washed with PBS, and lysed in 1% NP-40, 10% glycerol, 2% sodium orthovanadate, and HALT protease inhibitor cocktail (ThermoFisher). Lysate was diluted to 50 ug in 30 uL lysis buffer with 1% DTT and incubated on ice for 15 minutes. 0.25 ug HA-Ub-VS was added, and the sample was gently rocked at room temperature for 30 minutes, then denatured with LDS sample buffer.

USP10 [2] = molecular target: USP10 (Homo sapiens, UniProt Q14694); experiment: MALDI TOF DUB assay with diubiquitin substrate; type: biochemical; conditions: diubiquitin (K11) as substrate
Experimental: Thirty-one human DUBs were freshly diluted in the reaction buffer (40 mM Tris-HCl, pH 7.6, 5 mM DTT, 0.005% BSA) at different concentrations (see Table 10). […] The enzymes were pre-incubated with the compounds for 30 min at room temperature at 10 μM final concentration. 0.48 μl of di-ubiquitin topoisomers were added to the reaction mixture to initiate the reaction. The reaction was sealed and incubated for 30 min at room temperature and stopped by adding TFA to a final concentration of 2% (v/v).
Mass spectrometry data was acquired on an UltrafleXtreme MALDI-TOF mass spectrometer (Bruker Daltonics) with Compass 1.3 control and processing software. The sample carrier was taught before each analysis to optimize and centre laser shooting. […] Samples were analysed in automatic mode (AutoXecute, Bruker Daltonics). […] An amount of 3,500 shots were summed up in “random walk” and with “large” smartbeam laser focus. Spectra were automatically calibrated on the ^15N-Ub m/z and processed using smoothing (Savitzky-Golay algorithm) and baseline subtraction (‘TopHat’) for reproducible peak annotation on non-resolved isotope distributions: one cycle, 0.2 m/z for the width. For area calculation, the complete isotopic distribution was taken into account. […]

USP10 (Homo sapiens, UniProt Q14694), sequence (Q14694 whole entry): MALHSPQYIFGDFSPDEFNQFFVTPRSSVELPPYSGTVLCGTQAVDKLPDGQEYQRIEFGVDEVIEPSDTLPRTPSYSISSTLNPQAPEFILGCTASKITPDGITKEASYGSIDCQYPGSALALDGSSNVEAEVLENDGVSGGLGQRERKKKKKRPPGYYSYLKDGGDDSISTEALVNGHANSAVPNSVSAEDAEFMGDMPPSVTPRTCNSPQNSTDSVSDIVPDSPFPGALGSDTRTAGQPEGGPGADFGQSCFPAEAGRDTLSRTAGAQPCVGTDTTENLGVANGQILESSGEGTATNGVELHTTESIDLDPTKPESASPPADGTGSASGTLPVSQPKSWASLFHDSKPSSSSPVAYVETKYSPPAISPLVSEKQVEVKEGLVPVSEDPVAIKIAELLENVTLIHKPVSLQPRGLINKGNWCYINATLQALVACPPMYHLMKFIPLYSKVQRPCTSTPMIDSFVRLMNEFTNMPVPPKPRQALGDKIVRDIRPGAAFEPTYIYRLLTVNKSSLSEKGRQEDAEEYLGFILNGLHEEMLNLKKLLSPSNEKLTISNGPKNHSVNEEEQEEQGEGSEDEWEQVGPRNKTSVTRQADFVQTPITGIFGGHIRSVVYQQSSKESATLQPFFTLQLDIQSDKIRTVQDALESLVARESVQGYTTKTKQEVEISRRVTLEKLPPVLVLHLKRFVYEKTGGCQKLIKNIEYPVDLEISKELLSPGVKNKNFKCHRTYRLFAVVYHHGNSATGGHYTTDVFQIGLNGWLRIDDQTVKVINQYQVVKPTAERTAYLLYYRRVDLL

## CN(CCCNC(=O)c1ccc2nc3c(c(Cl)c2c1)CCCC3)Cc1ccccc1 [HBX19818, reference compound]
Ba/F3-FLT3-ITD cells
  Proliferation EC50: single digit micromolar range
USP10 [1]
  Inhibitor concentration blocking USP10 labeling by HA-Ub-VS: low micromolar range
Ba/F3-D835Y cells
  Proliferation EC50: single digit micromolar range
USP10 [2]
  IC50: 14 µM
